The results in this text go back to ChEMBL document CHEMBL2375313, “Synthesis, in vitro antitumor evaluation and DNA-binding study of novel tetrahydroquinolines and some derived tricyclic and tetracyclic ring systems” (Eur J Med Chem, 2013).

What all share (type): functional
The nature of test [1]: Cytotoxicity against human breast cancer cells after 48 hrs by sulphorhodamine B assay. Conditions: Cancer cell lines.
Test [2] can be described thus: Cytotoxicity against human prostate cancer cells after 48 hrs by sulphorhodamine B assay. Conditions: Cancer cell lines.
Test [3] is described as follows: Cytotoxicity against human ovarian cancer cells after 48 hrs by sulphorhodamine B assay. Conditions: Cancer cell lines. (In SRB staining, fixed cells bind dye roughly in proportion to their protein.)
The nature of test [4]: Cytotoxicity against human renal cancer cells after 48 hrs by sulphorhodamine B assay. Conditions: Cancer cell lines.
Test [5] in a line: Cytotoxicity against human melanoma cells after 48 hrs by sulphorhodamine B assay. Conditions: Melanoma cell.
The nature of test [6]: Cytotoxicity against human CNS cancer cells after 48 hrs by sulphorhodamine B assay. Conditions: Cancer cell lines.
Test [7] is described as follows: Cytotoxicity against human colon cancer cells after 48 hrs by sulphorhodamine B assay. Conditions: Cancer cell lines.
Test [8] in a line: Cytotoxicity against human non-small cell lung cancer cells after 48 hrs by sulphorhodamine B assay. Conditions: Cancer cell lines.
Test [9] can be described thus: Cytotoxicity against human leukemia cells after 48 hrs by sulphorhodamine B assay. Conditions: Leukemia cell.
Setting [10] is: read-out: LC50 (the source's name).

Usually GI50 stands for the concentration giving 50% growth inhibition. Low readings indicate more potent growth inhibition, high ones less potent growth inhibition. One may read the TGI as the concentration at which net growth stops.

Bounds are passed on as bounds.

For the molecule `O=c1[nH]cc(F)c(=O)[nH]1` [FLUOROURACIL], the GI50 in test [1] was determined as 76.4 µM; in [2] it was 22.7 µM; in test [3] it was 61.4 µM; in test [4] it was 45.6 µM; in test [5] it was 70.6 µM; in [7] it was 8.4 µM. In addition, the 50% growth inhibitory concentration (GI50) in test [8] is greater than 100 µM. Further, the TGI in [1], in test [2], in test [3], in test [4], in test [5] and in [6] was greater than 100 µM in each case. In addition, the TGI in test [7], in test [8] and in test [9] was greater than 100 µM each time. Moreover, the CC50 in test [3] (setting [10]), in [5] (setting [10]) and in test [7] (setting [10]) was greater than 100 µM in each case.
